According to patent publication US10561676B2, “Method for treating cancer using dual antagonists of CXCR1 and CXCR2” (Syntrix Biosystems, Inc., priority 2018, dated 2020):

Columns and labels:
neutrophils = assay: Murine air-pouch model of inflammation; type: in vivo; details: depending on the dose given
[1] = Stability in human plasma; type: in vitro ADME; details: for t½: 5 μM, 37° C., LC-MS/MS detection
Procedure: The in vitro stability of SX-682 and the congeners of Metabolic Stability Example 1 (FIG. 6) were further studied in human plasma. The reactions were initiated by the addition of 5 μl of a 500 μM DMSO stock solution to 495 μl of preheated plasma solution to yield a final concentration of 5 μM. The assays were performed in a heat block at 37° C. and conducted in duplicate. Samples (50 μl) were taken at 0, 30, 60, 120, 240 min and added to 150 μL acetonitrile in order to deproteinize the plasma. The samples were subjected to vortex mixing for 1 min and then centrifugation for 15 min at 14,000 rpm. The clear supernatants were analyzed by LC-MS.
The in vitro plasma half-life (t½) was calculated using the expression t½=ln(2)/b where b is the slope found in the linear fit of the natural logarithm of the fraction remaining of the parent compound vs. incubation time.

[2] = Stability in human liver microsomes (NADPH-dependent); type: in vitro ADME; details: 37° C., NADPH-dependent
Procedure: The compounds were incubated in duplicate with human liver microsomes at 37° C. The reaction contained microsomal protein in 100 mM potassium phosphate, 2 mM NADPH, 3 mM MgCl2, pH 7.4. A control was run for each compound omitting NADPH to detect NADPH-independent degradation. An aliquot was removed from each experimental and control reaction at 0, 10, 20, 30, and 60 minutes and mixed with an equal volume of ice-cold Stop Solution (0.3% acetic acid in acetonitrile containing haloperidol, diclofenac, or other internal standard). Stopped reactions were incubated for at least ten minutes at −20° C., and an additional volume of water was added. The samples were centrifuged to remove precipitated protein, and the supernatants were analyzed by LCMS/MS to quantitate the remaining compound. Data were converted to percent remaining by dividing by the time zero concentration value. Data were fit to a first-order decay model to determine half-life. Intrinsic clearance was calculated from the half-life and the protein concentrations: CLint=ln(2)/(t½[microsomal protein]). […] More surprising is that eliminating the ring nitrogen in SX-517 yielded a half-life even larger than that of SX-682. The results as a whole led to no SAR predictive of the surprising stability of SX-682.

Sprague-Dawley rats = assay: Ozone rat model of pulmonary inflammation (neutrophil influx into BALF); type: in vivo; details: 1 mg/kg i.v. once, 1 ppm ozone 4 hours, BALF at 24 hours
Procedure: SX-682 was assayed in an in vivo rat model of pulmonary inflammation. Activity in this model of pulmonary inflammation provides evidence that supports the use of SX-682 in the treatment of a number of pulmonary inflammatory diseases, including chronic obstructive pulmonary disease (COPD) and bronchopulmonary dysplasia (BPD). In this experiment, Sprague-Dawley rats (n=4 per cohort) were dosed intravenously only once at t=0 with either vehicle control (dimethylformamide/PEG400/saline, 40:40:20), positive inhibitor control (SX-576, 1 mg/kg) or the test compound (SX-682, 1 mg/kg). The rats were then placed in air (negative exposure group; vehicle control only) or 1 ppm ozone (positive exposure group; vehicle control, positive inhibitor control SX-576, and test compound SX-682) for 4 hours. The rats were then sacrificed at t=24 hours, and the bronchoalveolar lavage fluid (BALF) was collected. The cells were spun down, stained with Wright-Giemsa and counted. In the negative exposure group, no neutrophils were observed when stained. In the ozone exposed rats treated with vehicle however, there was a brisk influx of neutrophils of approximately 14,000 per mL of BALF (FIG. 5).

[3] = tested on: C3Tag mouse model of breast cancer; assay: C3Tag mouse model of breast cancer; type: in vivo; details: SX-682 10 mg/day/mouse oral; carboplatin 50 mg/kg weekly i.p.; vehicle 18 days
Source text: The C31-T-antigen (C3Tag) mouse model is a validated model of human triple-negative basal cell breast cancer as shown by gene expression analysis (Maroulakou, 1994, Proc Natl Acad Sci, 91:11236-40, herein incorporated by reference). The expressed large T-antigen binds and inactivates the RB and p53 tumor suppressor genes, explaining why this model faithfully recapitulates human basal breast cancer, which also harbors RB and p53 inactivation. This model also has frequent K-Ras amplification and infrequent Ras mutations. Treatment regimens were started following tumor manifestation. SX-682 was given orally via medicated feed, at an approximate dose of 10 mg/day/mouse. CP was administered once weekly via intraperitoneal injection at a dose of 50 mg/kg.

| t½ [1] | reduction in plasma half-life ([1]; relative to SX-682/SX-576) | t½, half-life [2] | SMILES | activity on neutrophils (neutrophils) | influx of neutrophils into the lungs (BALF) vs vehicle (Sprague-Dawley rats) | median survival, single agent [3] |
| --- | --- | --- | --- | --- | --- | --- |
| 1.88 h | 5 fold | 6.75 h | O=C(Nc1ccc(F)cc1)c1ccc(SCc2ccccc2B(O)O)nc1 [SX-517] | both inhibitory and agonist activity on neutrophils were achieved |  |  |
| 8.88 h |  | 0.833 h | O=C(Nc1ccc(F)cc1)c1ccc(SCc2cc(OC(F)(F)F)ccc2B(O)O)nc1 [SX-576] | both inhibitory and agonist activity on neutrophils were achieved | significantly decreased the influx of neutrophils |  |
|  |  |  | N.N.O=C([O-])C1(C(=O)[O-])CCC1.[Pt+2] [carboplatin, reference compound] |  |  | 28 days |
